Values after ≈ are worked out from the molar mass of the structure shown.
Columns and labels:
Staphylococcus aureus = assay: Antibacterial activity against Staphylococcus aureus 209P JC1 after 20 hrs by agar dilution method; assay type: functional; settings: 209P JC1, 20 h
Streptococcus pyogenes [1] = assay: Antibacterial activity against Streptococcus pyogenes 2 expressing constitutive ermB methylase after 20 hrs by agar dilution method; assay type: functional; settings: Streptococcus pyogenes, 2, 20 h
Streptococcus pneumoniae [2] = assay: Antibacterial activity against Streptococcus pneumoniae 5 expressing constitutive ermB methylase after 20 hrs by agar dilution method; assay type: functional; settings: Streptococcus pneumoniae, 5, 20 h
Haemophilus influenzae [3] = assay: Antibacterial activity against Haemophilus influenzae 1 after 20 hrs by agar dilution method; assay type: functional; settings: Haemophilus influenzae, 1, 20 h
[4] = Metabolic stability at human liver S9 fraction assessed as compound remaining after 1 hr; assay type: ADME, subcellular; settings: read-out: Stability
Streptococcus pyogenes [5] = assay: Antibacterial activity against Streptococcus pyogenes Cook after 20 hrs by agar dilution method; assay type: functional
Streptococcus pneumoniae [6] = assay: Antibacterial activity against Streptococcus pneumoniae 6 expressing constitutive ermB methylase and mefA after 20 hrs by agar dilution method; assay type: functional; settings: Streptococcus pneumoniae, 6, 20 h
Streptococcus pneumoniae [7] = assay: Antibacterial activity against Streptococcus pneumoniae 11 expressing mefA efflux pump after 20 hrs by agar dilution method; assay type: functional; settings: Streptococcus pneumoniae, 11, 20 h
Haemophilus influenzae [8] = assay: Antibacterial activity against Haemophilus influenzae 2 after 20 hrs by agar dilution method; assay type: functional; settings: Haemophilus influenzae, 2, 20 h
Streptococcus pneumoniae [9] = assay: Antibacterial activity against Streptococcus pneumoniae 9 expressing inducible ermB methylase after 20 hrs by agar dilution method; assay type: functional; settings: Streptococcus pneumoniae, 9, 20 h
Streptococcus pyogenes [10] = assay: Antibacterial activity against Streptococcus pyogenes 3 expressing mefA efflux pump after 20 hrs by agar dilution method; assay type: functional; settings: Streptococcus pyogenes, 3, 20 h
Haemophilus influenzae [11] = assay: Antibacterial activity against Haemophilus influenzae 3 after 20 hrs by agar dilution method; assay type: functional; settings: Haemophilus influenzae, 3, 20 h
Streptococcus pneumoniae [12] = assay: Antibacterial activity against Streptococcus pneumoniae DP1 type 1 after 20 hrs by agar dilution method; assay type: functional; settings: DP1 type1, 20 h
Streptococcus pneumoniae [13] = assay: Antibacterial activity against Streptococcus pneumoniae 7 expressing constitutive ermB methylase after 20 hrs by agar dilution method; assay type: functional; settings: Streptococcus pneumoniae, 7, 20 h
Streptococcus pneumoniae [14] = assay: Antibacterial activity against Streptococcus pneumoniae 8 expressing inducible ermB methylase after 20 hrs by agar dilution method; assay type: functional; settings: Streptococcus pneumoniae, 8, 20 h
Streptococcus pneumoniae [15] = assay: Antibacterial activity against Streptococcus pneumoniae 10 expressing mefA efflux pump after 20 hrs by agar dilution method; assay type: functional; settings: Streptococcus pneumoniae, 10, 20 h

| SMILES | MIC (Staphylococcus aureus) [µg/mL] | MIC (Streptococcus pyogenes [1]) [µg/mL] | MIC (Streptococcus pneumoniae [2]) [µg/mL] | MIC (Haemophilus influenzae [3]) [µg/mL] | remaining at 1 h [4] [%] | MIC (Streptococcus pyogenes [5]) [µg/mL] | MIC (Streptococcus pneumoniae [6]) [µg/mL] | MIC (Streptococcus pneumoniae [7]) [µg/mL] | MIC (Haemophilus influenzae [8]) [µg/mL] | MIC (Streptococcus pneumoniae [9]) [µg/mL] | MIC (Streptococcus pyogenes [10]) [µg/mL] | MIC (Haemophilus influenzae [11]) [µg/mL] | MIC (Streptococcus pneumoniae [12]) [µg/mL] | MIC (Streptococcus pneumoniae [13]) [µg/mL] | MIC (Streptococcus pneumoniae [14]) [µg/mL] | MIC (Streptococcus pneumoniae [15]) [µg/mL] |
| --- | --- | --- | --- | --- | --- | --- | --- | --- | --- | --- | --- | --- | --- | --- | --- | --- |
| CC[C@H]1OC(=O)[C@H](C)C(=O)[C@H](C)[C@@H](O[C@@H]2O[C@H](C)C[C@H](N(C)C)[C@H]2O)[C@](C)(OC)C[C@@H](C)C(=O)[C@H](C)[C@H]2N(CCCCn3cnc(-c4cccnc4)c3)C(=O)O[C@]12C [TELITHROMYCIN] | 0.03 (≈ 0.0369 µM) | 16 (≈ 19.7 µM) | 0.5 (≈ 0.616 µM) | 0.5 (≈ 0.616 µM) | 84 | < 0.008 | 1 (≈ 1.23 µM) | 0.06 (≈ 0.0739 µM) | 2 (≈ 2.46 µM) | 0.06 (≈ 0.0739 µM) | 0.5 (≈ 0.616 µM) | 1 (≈ 1.23 µM) | < 0.008 | 1 (≈ 1.23 µM) | 0.06 (≈ 0.0739 µM) | 0.06 (≈ 0.0739 µM) |
| CCC(=O)O[C@@H]1CC(=O)O[C@@H](C/C=C/c2cnc3ccccc3c2)CCCN(C)C[C@H](O)[C@H](C)C[C@H](CC=O)[C@H](O[C@@H]2O[C@H](C)[C@@H](O[C@H]3C[C@@](C)(OC(=O)CC)[C@@H](OC(=O)NC)[C@H](C)O3)[C@H](N(C)C)[C@H]2O)[C@H]1OC | 0.25 (≈ 0.24 µM) | > 32 | 32 (≈ 30.7 µM) | 4 (≈ 3.83 µM) | 78 | 0.06 (≈ 0.0575 µM) | 32 (≈ 30.7 µM) | 0.03 (≈ 0.0288 µM) | 8 (≈ 7.67 µM) | 0.5 (≈ 0.479 µM) | 0.06 (≈ 0.0575 µM) | 8 (≈ 7.67 µM) | < 0.008 | 32 (≈ 30.7 µM) | 0.25 (≈ 0.24 µM) | 0.015 (≈ 0.0144 µM) |
| CCNC(=O)O[C@H]1[C@H](C)O[C@@H](O[C@H]2[C@H](N(C)C)[C@@H](O)[C@H](O[C@H]3[C@@H](CC=O)C[C@@H](C)[C@@H](O)CN(C)CCC[C@H](C/C=C/c4ccc5ccccc5c4)OC(=O)C[C@@H](OC(=O)CC)[C@@H]3OC)O[C@@H]2C)C[C@@]1(C)OC(=O)CC | 2 (≈ 1.89 µM) | 16 (≈ 15.1 µM) | 16 (≈ 15.1 µM) | 16 (≈ 15.1 µM) | 82 | 0.25 (≈ 0.237 µM) | 32 (≈ 30.3 µM) | 0.13 (≈ 0.123 µM) | 16 (≈ 15.1 µM) | 0.5 (≈ 0.473 µM) | 0.5 (≈ 0.473 µM) | 32 (≈ 30.3 µM) | 0.06 (≈ 0.0568 µM) | 32 (≈ 30.3 µM) | 0.5 (≈ 0.473 µM) | 0.13 (≈ 0.123 µM) |
| CCNC(=O)O[C@H]1[C@H](C)O[C@@H](O[C@H]2[C@H](N(C)C)[C@@H](O)[C@H](O[C@H]3[C@@H](CC=O)C[C@@H](C)[C@@H](O)CN(C)CCC[C@H](C/C=C/c4cnc5ccccc5c4)OC(=O)C[C@@H](OC(=O)CC)[C@@H]3OC)O[C@@H]2C)C[C@@]1(C)OC(=O)CC | 0.25 (≈ 0.236 µM) | 32 (≈ 30.3 µM) | 16 (≈ 15.1 µM) | 8 (≈ 7.57 µM) | 79 | 0.06 (≈ 0.0567 µM) | 16 (≈ 15.1 µM) | 0.015 (≈ 0.0142 µM) | 16 (≈ 15.1 µM) | 0.25 (≈ 0.236 µM) | 0.13 (≈ 0.123 µM) | 16 (≈ 15.1 µM) | 0.015 (≈ 0.0142 µM) | 16 (≈ 15.1 µM) | 0.13 (≈ 0.123 µM) | 0.015 (≈ 0.0142 µM) |
| CCC(=O)O[C@@H]1CC(=O)O[C@@H](C/C=C/c2cnc3ccccc3c2)CCCN(C)C[C@H](O)[C@H](C)C[C@H](CC=O)[C@H](O[C@@H]2O[C@H](C)[C@@H](O[C@H]3C[C@@](C)(O)[C@@H](OC(=O)CC)[C@H](C)O3)[C@H](N(C)C)[C@H]2O)[C@H]1OC | 0.5 (≈ 0.507 µM) | > 128 | 128 (≈ 130 µM) | 2 (≈ 2.03 µM) | 28 | 0.06 (≈ 0.0608 µM) | 128 (≈ 130 µM) | 0.03 (≈ 0.0304 µM) | 8 (≈ 8.11 µM) | 8 (≈ 8.11 µM) | 0.5 (≈ 0.507 µM) | 8 (≈ 8.11 µM) | 0.015 (≈ 0.0152 µM) | 128 (≈ 130 µM) | 8 (≈ 8.11 µM) | 0.06 (≈ 0.0608 µM) |
| CCNC(=O)O[C@H]1[C@H](C)O[C@@H](O[C@H]2[C@H](N(C)C)[C@@H](O)[C@H](O[C@H]3[C@@H](CC=O)C[C@@H](C)[C@@H](O)CN(C)CCC[C@H](C/C=C/c4ccc(N)nc4)OC(=O)C[C@@H](O)[C@@H]3OC)O[C@@H]2C)C[C@@]1(C)OC(=O)CC | 2 (≈ 2.07 µM) | 16 (≈ 16.6 µM) | 4 (≈ 4.14 µM) | 4 (≈ 4.14 µM) | – | 0.13 (≈ 0.135 µM) | 4 (≈ 4.14 µM) | 0.13 (≈ 0.135 µM) | 8 (≈ 8.28 µM) | 0.25 (≈ 0.259 µM) | 0.13 (≈ 0.135 µM) | 16 (≈ 16.6 µM) | 0.03 (≈ 0.0311 µM) | 4 (≈ 4.14 µM) | 0.25 (≈ 0.259 µM) | 0.06 (≈ 0.0621 µM) |
| CCC(=O)O[C@@H]1CC(=O)O[C@@H](C/C=C/c2cnc3ccccc3c2)CCCN(C)C[C@H](O)[C@H](C)C[C@H](CC=O)[C@H](O[C@@H]2O[C@H](C)[C@@H](O[C@H]3C[C@@](C)(OC(=O)CC)[C@@H](OC(=O)NCCO)[C@H](C)O3)[C@H](N(C)C)[C@H]2O)[C@H]1OC | 0.5 (≈ 0.466 µM) | > 32 | > 32 | 4 (≈ 3.73 µM) | – | 0.06 (≈ 0.0559 µM) | 32 (≈ 29.8 µM) | 0.015 (≈ 0.014 µM) | 16 (≈ 14.9 µM) | 0.5 (≈ 0.466 µM) | 0.13 (≈ 0.121 µM) | 16 (≈ 14.9 µM) | 0.015 (≈ 0.014 µM) | 32 (≈ 29.8 µM) | 0.25 (≈ 0.233 µM) | 0.015 (≈ 0.014 µM) |
| CCC(=O)O[C@@H]1CC(=O)O[C@H](C)C/C=C/C=C/[C@H](OC(C)=O)[C@H](C)C[C@H](CC=O)[C@H](O[C@@H]2O[C@H](C)[C@@H](O[C@H]3C[C@@](C)(OC(C)=O)[C@@H](OC(=O)CC)[C@H](C)O3)[C@H](N(C)C)[C@H]2O)[C@H]1OC [MIOCAMYCIN] | 0.5 (≈ 0.557 µM) | > 128 | > 128 | 4 (≈ 4.45 µM) | 5.1 | 0.13 (≈ 0.145 µM) | > 128 | 0.25 (≈ 0.278 µM) | 16 (≈ 17.8 µM) | 8 (≈ 8.91 µM) | 0.5 (≈ 0.557 µM) | 16 (≈ 17.8 µM) | 0.13 (≈ 0.145 µM) | > 128 | 4 (≈ 4.45 µM) | 0.25 (≈ 0.278 µM) |
| CC[C@H]1OC(=O)[C@H](C)[C@@H](O[C@H]2C[C@@](C)(OC)[C@@H](O)[C@H](C)O2)[C@H](C)[C@@H](O[C@@H]2O[C@H](C)C[C@H](N(C)C)[C@H]2O)[C@](C)(OC)C[C@@H](C)C(=O)[C@H](C)[C@@H](O)[C@]1(C)O [CLARITHROMYCIN] | 0.13 (≈ 0.174 µM) | > 128 | > 128 | 2 (≈ 2.67 µM) | – | 0.03 (≈ 0.0401 µM) | > 128 | 1 (≈ 1.34 µM) | 8 (≈ 10.7 µM) | > 128 | 8 (≈ 10.7 µM) | 8 (≈ 10.7 µM) | 0.03 (≈ 0.0401 µM) | > 128 | > 128 | 1 (≈ 1.34 µM) |
| CCC(=O)O[C@@H]1CC(=O)O[C@@H](C/C=C/c2cnc3ccccc3c2)CCCN(C)C[C@H](O)[C@H](C)C[C@H](CC=O)[C@H](O[C@@H]2O[C@H](C)[C@@H](O[C@H]3C[C@@](C)(OC(=O)CC)[C@@H](OC(=O)NC(C)C)[C@H](C)O3)[C@H](N(C)C)[C@H]2O)[C@H]1OC | 0.5 (≈ 0.467 µM) | 32 (≈ 29.9 µM) | 16 (≈ 14.9 µM) | 8 (≈ 7.47 µM) | – | 0.13 (≈ 0.121 µM) | 16 (≈ 14.9 µM) | 0.13 (≈ 0.121 µM) | 32 (≈ 29.9 µM) | 0.25 (≈ 0.233 µM) | 0.25 (≈ 0.233 µM) | 32 (≈ 29.9 µM) | 0.03 (≈ 0.028 µM) | 16 (≈ 14.9 µM) | 0.25 (≈ 0.233 µM) | 0.06 (≈ 0.056 µM) |

Reference: ChEMBL document CHEMBL1156987, “Novel azalides derived from 16-membered macrolides. III. Azalides modified at the C-15 and 4'' positions: Improved antibacterial activities” (Bioorg Med Chem, 2010)
